From ChEMBL document CHEMBL1130110 (J Med Chem, 1997)

Tests used:
Glucagon receptor [1] = biological target: T1, Glucagon receptor (Rattus norvegicus, UniProt P30082); assay: pA2 value against Glucagon Receptor; conditions: read-out: pA2 (converted)
Glucagon receptor [2] = biological target: T1, Glucagon receptor; assay: Binding affinity towards Glucagon receptor in rat liver plasma membranes by displacement of 125 I-labelled glucagon; format: cell membranes
[3] = biological target: Glucagon receptor (Rattus norvegicus) (UniProt P30082); assay: Relative binding potency expressed as receptor binding IC50 for glucagon by receptor binding IC50 for compound
[4] = biological target: Glucagon receptor (Rattus norvegicus) (UniProt P30082); assay: Percent stimulation of cAMP production over basal.; format: functional; design: concentration or dose not given beside the values

Chain of Glucagon receptor (Rattus norvegicus) (P30082 whole entry): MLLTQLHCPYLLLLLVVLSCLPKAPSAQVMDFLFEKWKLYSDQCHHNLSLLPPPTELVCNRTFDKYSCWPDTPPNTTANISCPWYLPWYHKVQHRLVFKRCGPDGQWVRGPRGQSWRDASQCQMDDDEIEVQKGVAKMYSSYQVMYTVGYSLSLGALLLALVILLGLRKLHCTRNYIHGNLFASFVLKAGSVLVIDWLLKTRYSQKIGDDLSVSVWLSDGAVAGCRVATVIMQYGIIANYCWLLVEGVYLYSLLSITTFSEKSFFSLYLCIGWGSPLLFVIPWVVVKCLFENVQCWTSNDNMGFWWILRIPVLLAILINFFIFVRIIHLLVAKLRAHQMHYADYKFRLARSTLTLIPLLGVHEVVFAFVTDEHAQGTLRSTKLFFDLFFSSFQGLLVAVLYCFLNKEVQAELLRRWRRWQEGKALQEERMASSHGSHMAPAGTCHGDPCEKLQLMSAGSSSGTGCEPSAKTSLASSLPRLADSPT
T1 sequence (P30082 whole entry): as above

Row | Kb (Glucagon receptor [1]) [nM] | IC50 (Glucagon receptor [2]) [nM] | Activity [3] [%] | Activity [4] [%] | Compound
1 | 501 | 2000 |  |  | CSCC[C@H](NC(=O)[C@H](CC(C)C)NC(=O)[C@H](Cc1c[nH]c2ccccc12)NC(=O)[C@H](CCC(N)=O)NC(=O)[C@@H](NC(=O)[C@H](Cc1ccccc1)NC(=O)[C@H](CC(=O)O)NC(=O)[C@H](CCC(N)=O)NC(=O)[C@H](C)NC(=O)[C@H](CCCNC(=N)N)NC(=O)[C@H](CCCNC(=N)N)NC(=O)[C@H](CO)NC(=O)[C@H](CC(=O)O)NC(=O)[C@H](CC(C)C)NC(=O)[C@H](Cc1ccc(O)cc1)NC(=O)[C@H](CCCCN)NC(=O)[C@H](CO)NC(=O)[C@H](Cc1ccc(O)cc1)NC(=O)[C@H](CCC(=O)O)NC(=O)[C@H](CO)NC(=O)[C@@H](NC(=O)[C@H](CC(=O)O)NC(=O)[C@@H](NC(=O)CNC(=O)[C@H](CCC(N)=O)NC(=O)[C@@H](N)CO)[C@@H](C)O)[C@@H](C)O)C(C)C)C(=O)N[C@@H](CC(N)=O)C(=O)N[C@H](C(N)=O)[C@@H](C)O
2 |  | 48 |  |  | CCCC[C@H](NC(=O)[C@@H](NC(=O)CNC(=O)[C@H](CCC(N)=O)NC(=O)[C@@H](N)CO)[C@@H](C)O)C(=O)N[C@H](C(=O)N[C@@H](CO)C(=O)N[C@@H](CCC(=O)O)C(=O)N[C@@H](Cc1ccc(O)cc1)C(=O)N[C@@H](CO)C(=O)N[C@@H](CCCCN)C(=O)N[C@@H](Cc1ccc(O)cc1)C(=O)N[C@@H](CC(C)C)C(=O)N[C@@H](CC(=O)O)C(=O)N[C@@H](CO)C(=O)N[C@@H](CCCN=C(N)N)C(=O)N[C@@H](CCCN=C(N)N)C(=O)N[C@@H](C)C(=O)N[C@@H](CCC(N)=O)C(=O)N[C@@H](CC(=O)O)C(=O)N[C@@H](Cc1ccccc1)C(=O)N[C@H](C(=O)N[C@@H](CCC(N)=O)C(=O)N[C@@H](Cc1c[nH]c2ccccc12)C(=O)N[C@@H](CC(C)C)C(=O)N[C@@H](CCSC)C(=O)N[C@@H](CC(N)=O)C(=O)N[C@H](C(N)=O)[C@@H](C)O)C(C)C)[C@@H](C)O
3 | 708 | 200 |  |  | CSCC[C@H](NC(=O)[C@H](CC(C)C)NC(=O)[C@H](Cc1c[nH]c2ccccc12)NC(=O)[C@H](CCC(N)=O)NC(=O)[C@@H](NC(=O)[C@H](Cc1ccccc1)NC(=O)[C@H](CC(=O)O)NC(=O)[C@H](CCC(N)=O)NC(=O)[C@H](C)NC(=O)[C@H](CCCNC(=N)N)NC(=O)[C@H](CCCNC(=N)N)NC(=O)[C@H](CO)NC(=O)[C@H](CC(=O)O)NC(=O)[C@H](CC(C)C)NC(=O)[C@H](Cc1ccc(O)cc1)NC(=O)[C@H](CCCCN)NC(=O)[C@H](CO)NC(=O)[C@H](Cc1ccc(O)cc1)NC(=O)[C@H](CC(=O)O)NC(=O)[C@H](CO)NC(=O)[C@@H](NC(=O)[C@@H](NC(=O)CNC(=O)[C@H](CCC(N)=O)NC(=O)[C@@H](N)CO)[C@@H](C)O)[C@@H](C)O)C(C)C)C(=O)N[C@@H](CC(N)=O)C(=O)N[C@H](C(=O)O)[C@@H](C)O
4 | 501 | 100 |  |  | CSCC[C@H](NC(=O)[C@H](CC(C)C)NC(=O)[C@H](Cc1c[nH]c2ccccc12)NC(=O)[C@H](CCC(N)=O)NC(=O)[C@@H](NC(=O)[C@H](Cc1ccccc1)NC(=O)[C@H](CC(=O)O)NC(=O)[C@H](CCC(N)=O)NC(=O)[C@H](C)NC(=O)[C@H](CCCN=C(N)N)NC(=O)[C@H](CCCN=C(N)N)NC(=O)[C@H](CO)NC(=O)[C@H](CC(=O)O)NC(=O)[C@H](CC(C)C)NC(=O)[C@H](Cc1ccc(O)cc1)NC(=O)[C@H](CCCCN)NC(=O)[C@H](CO)NC(=O)[C@H](Cc1ccc(O)cc1)NC(=O)[C@H](CCC(=O)O)NC(=O)[C@H](CO)NC(=O)[C@@H](NC(=O)[C@@H](Cc1ccccc1)NC(=O)[C@@H](NC(=O)CNC(=O)[C@H](CCC(N)=O)NC(=O)[C@@H](N)CO)[C@@H](C)O)[C@@H](C)O)C(C)C)C(=O)N[C@@H](CC(N)=O)C(=O)N[C@H](C(N)=O)[C@@H](C)O
5 | 562 | 500 |  |  | H-HSQGTTSDYSKYLDSRRAQDFVQWLMNT-OH
6 |  |  | 1.3 | 0 | CSCC[C@@H](NC(=O)[C@@H](CC(C)C)NC(=O)[C@@H](Cc1c[nH]c2ccccc12)NC(=O)[C@@H](CCC(N)=O)NC(=O)[C@H](NC(=O)[C@@H](Cc1ccccc1)NC(=O)[C@@H](CC(=O)O)NC(=O)[C@@H](CCC(N)=O)NC(=O)[C@@H](C)NC(=O)[C@@H](CCCN=C(N)N)NC(=O)[C@@H](CCCN=C(N)N)NC(=O)[C@@H](CO)NC(=O)[C@@H](CC(=O)O)NC(=O)[C@@H](CC(C)C)NC(=O)[C@@H](Cc1ccc(O)cc1)NC(=O)[C@@H](CCCCN)NC(=O)[C@@H](CO)NC(=O)[C@@H](Cc1ccc(O)cc1)NC(=O)[C@@H](CCC(=O)O)NC(=O)[C@@H](CO)NC(=O)[C@H](NC(=O)[C@H](NC(=O)CNC(=O)[C@@H](CCC(N)=O)NC(=O)[C@@H](CO)NC(=O)[C@H](N)Cc1c[nH]cn1)[C@H](C)O)[C@H](C)O)C(C)C)C(=O)N[C@H](CC(N)=O)C(=O)N[C@@H](C(N)=O)[C@H](C)O
7 |  |  | 0.3 | 0 | CSCC[C@@H](NC(=O)[C@@H](CC(C)C)NC(=O)[C@@H](Cc1c[nH]c2ccccc12)NC(=O)[C@@H](CCC(N)=O)NC(=O)[C@H](NC(=O)[C@@H](Cc1ccccc1)NC(=O)[C@@H](CC(=O)O)NC(=O)[C@@H](CCC(N)=O)NC(=O)[C@@H](C)NC(=O)[C@@H](CCCN=C(N)N)NC(=O)[C@@H](CCCN=C(N)N)NC(=O)[C@@H](CO)NC(=O)[C@@H](CC(=O)O)NC(=O)[C@@H](CC(C)C)NC(=O)[C@@H](Cc1ccc(O)cc1)NC(=O)[C@@H](CCCCN)NC(=O)[C@@H](CO)NC(=O)[C@@H](Cc1ccc(O)cc1)NC(=O)[C@@H](CC(=O)O)NC(=O)[C@@H](CO)NC(=O)[C@H](NC(=O)[C@H](NC(=O)CNC(=O)[C@@H](CCC(N)=O)NC(=O)[C@@H](CO)NC(=O)[C@H](N)Cc1c[nH]cn1)[C@H](C)O)[C@H](C)O)C(C)C)C(=O)N[C@H](CC(N)=O)C(=O)N[C@@H](C(N)=O)[C@H](C)O
8 |  |  | 3.1 | 12 | CCCC[C@H](NC(=O)[C@H](NC(=O)CNC(=O)[C@@H](CCC(N)=O)NC(=O)[C@H](N)CO)[C@H](C)O)C(=O)N[C@@H](C(=O)N[C@H](CO)C(=O)N[C@H](CCC(=O)O)C(=O)N[C@H](Cc1ccc(O)cc1)C(=O)N[C@H](CO)C(=O)N[C@H](CCCCN)C(=O)N[C@H](Cc1ccc(O)cc1)C(=O)N[C@H](CC(C)C)C(=O)N[C@H](CC(=O)O)C(=O)N[C@H](CO)C(=O)N[C@H](CCCN=C(N)N)C(=O)N[C@H](CCCN=C(N)N)C(=O)N[C@H](C)C(=O)N[C@H](CCC(N)=O)C(=O)N[C@H](CC(=O)O)C(=O)N[C@H](Cc1ccccc1)C(=O)N[C@@H](C(=O)N[C@H](CCC(N)=O)C(=O)N[C@H](Cc1c[nH]c2ccccc12)C(=O)N[C@H](CC(C)C)C(=O)N[C@H](CCSC)C(=O)N[C@H](CC(N)=O)C(=O)N[C@@H](C(N)=O)[C@H](C)O)C(C)C)[C@H](C)O
9 |  |  | 3.8 | 0 | CSCC[C@@H](NC(=O)[C@@H](CC(C)C)NC(=O)[C@@H](Cc1c[nH]c2ccccc12)NC(=O)[C@@H](CCC(N)=O)NC(=O)[C@H](NC(=O)[C@@H](Cc1ccccc1)NC(=O)[C@@H](CC(=O)O)NC(=O)[C@@H](CCC(N)=O)NC(=O)[C@@H](C)NC(=O)[C@@H](CCCN=C(N)N)NC(=O)[C@@H](CCCN=C(N)N)NC(=O)[C@@H](CO)NC(=O)[C@@H](CC(=O)O)NC(=O)[C@@H](CC(C)C)NC(=O)[C@@H](Cc1ccc(O)cc1)NC(=O)[C@@H](CCCCN)NC(=O)[C@@H](CO)NC(=O)[C@@H](Cc1ccc(O)cc1)NC(=O)[C@@H](CCC(=O)O)NC(=O)[C@@H](CO)NC(=O)[C@H](NC(=O)[C@@H](Cc1ccc(O)cc1)NC(=O)[C@H](NC(=O)CNC(=O)[C@@H](CCC(N)=O)NC(=O)[C@H](N)CO)[C@H](C)O)[C@H](C)O)C(C)C)C(=O)N[C@H](CC(N)=O)C(=O)N[C@@H](C(N)=O)[C@H](C)O
